Here are results for two compounds from paper PMC12074596, “The histone deacetylase inhibitor CT-101 flips the switch to fetal hemoglobin expression in sickle cell disease mice” (PLOS One, 2025).

Data set [1] concerns β-YAC transgenic mice. Nature of the data set: Complete blood counts, differentials and reticulocytes in β-YAC mice (Studies 1 and 2). Type of data set: in vivo, mouse.
Protocol: (§2) Each treatment group consisted of six mice per group (3 males and 3 females), and data was combined for 2 replicates for statistical analysis (n = 12). We collected tail vein blood at weeks 0, 2, and 4 and analyzed complete blood counts and differentials using an automated Micros 60 device (HORIBA Medical/ABX Diagnostics, Irvine, CA). The level of F-cells and mean fluorescence intensity (MFI) was determined by flow cytometry as previously published [28].
For data set [2], the system named is HbF. Nature of the data set: Flow cytometry of F-cells and MFI in peripheral blood of β-YAC mice. Type of data set: in vivo, β-YAC transgenic mice. The conditions noted are these: Study 1; HU 100 mg/kg; week 4; p < 0.001. A general note: Flow cytometry measures light scatter and fluorescence of single cells or particles in a stream.
Protocol: as §2
Flow cytometry was conducted on the FACSCanto machine (BD Biosciences, San Jose, CA) using gating parameters previously published by our group [28]. Briefly, the forward scatter and side scatter were set to gate erythroid cells, then during FLOWJO analysis, ‘log F-cell’‘ histograms (X-axis) generated to measure the percentage of HbF positive cells (F-cells) from total erythroid cells (Y-axis) after gating on the negative isotype control cells. The mean fluorescence intensity (MFI) to quantify the level of HbF protein per cell was generated by FLOWJO software.
Data set [3] relates to Townes SCD mice. Nature of the data set: Survival, weight and behavior of SCD mice (Study 3). Type of data set: in vivo, mouse. The conditions noted are these: both replicates combined.
Protocol: The study design was the same as in Studies 1 and 2, using SCD mice (4–6 months old) dosed once daily by IP injections, with water, HU (100 mg/kg), vehicle (FORM 3), CT-101 in FORM-3 (10 mg/kg), and combined HU and CT-101 administration. The study period was 4 weeks, and two independent replicates were combined for statistical analysis (n = 8–12). Blood collected at weeks 0, 2, and 4 were analyzed for complete blood count and differential, and F-cells and MFI quantified by flow cytometry. Blood stained with acridine orange (BD retic-count reagent) quantified reticulocytes by flow cytometry [31].
Data set [4] concerns Townes SCD mice. Nature of the data set: Complete blood counts, differentials and reticulocytes in SCD mice (Study 3). In kind it is in vivo, mouse. The conditions noted are these: HU 100 mg/kg; throughout the study; p < 0.01.
Protocol: The study period was 4 weeks, and two independent replicates were combined for statistical analysis (n = 8–12). Blood collected at weeks 0, 2, and 4 were analyzed for complete blood count and differential, and F-cells and MFI quantified by flow cytometry. Blood stained with acridine orange (BD retic-count reagent) quantified reticulocytes by flow cytometry [31].
Data set [5] concerns spleen. Nature of the data set: Spleen size and hematoxylin and eosin histology in SCD mice. In kind it is in vivo, Townes SCD mice. The method, then:
(§1) At the end of the 4-week treatment period, approximately 700 μL of blood was collected from each mouse into K3-EDTA tubes (Becton Dickinson, Franklin Lakes, NJ; catalog #365974) by cardiac puncture for plasma isolation after euthanasia using carbon dioxide gas. Subsequently, spleens were harvested for tissue stains, immunohistology, and protein isolation. A part of the spleen was fixed with buffered formaldehyde, embedded in paraffin, and sectioned into ~[…] thick slices for staining with hematoxylin and eosin for histology of spleen structures using a Keyence microscope (Keyence Itasca, IL). The immuno-histology staining was performed on frozen spleen sections using sheep polyclonal antibody against HbF conjugated with FITC (Life Technologies Corporation; catalog #A80-136F) and counterstained with DAPI (4′,6-diamidino-2-phenylindole) to identify the cell nucleus. The spleen tissue was analyzed using the EVOS cell imaging system (ThermoFisher, Waltham, MA) under x40 magnifications. The FITC-positive cells were counted for 15 high-power fields per section, and the mean average of the fields was used for statistical analysis.

For data set [6], the system named is HbF. Nature of the data set: Immuno-histology of spleen with FITC anti-HbF antibody in SCD mice. The following applies: end of four-week treatment. In kind it is in vivo, Townes SCD mice. As to the method: as §1
The subject of data set [7] is micronuclei. Nature of the data set: Micronuclei assay in SCD mouse blood. Type of data set: in vivo, Townes SCD mice. The following applies: end of treatment; p < 0.05. From the text: DNA was stained with propidium iodide/phycoerythrin for simultaneous measurement of cell viability, followed by FACSCAN flow cytometry analysis. Propidium iodide/phycoerythrin supplied in the MN analysis kit (Litron Laboratories, Rochester, NY; catalog #PLUS-M) was used as a positive control for CD71-FITC; the number of MN positive cells were counted in cell positive for CD71 and MN as previously published.

For data set [8], the system named is histone H3 and H4. Nature of the data set: Western blot of histone acetylation in spleen of SCD mice. In kind it is in vivo, Townes SCD mice. The following applies: end of treatment. As to the method: The total splenic cells were processed for histone acetylation levels by Western blot as previously published by our group.
Acidic histone extraction was performed according to standard protocols described previously by our group. […] Western blot quantitative data were collected by densitometry analysis using Image J software.
On the technique in general: A western blot detects proteins with antibodies after separation by electrophoresis.

For data set [9], the system named is HbF expression. Further details: method as in PMID 26045597. The following applies: adults with SCD; cited from earlier work.
Where [10] appears, read: Study 1, HU 100 mg/kg IP five days a week for four weeks.

The structures appear in SMILES notation.

Consider `NC(=O)NO` [HU, hydroxyurea], for which the “change in reticulocyte counts” value in data set [1] (Study 1, HU 100 mg/kg) is “increase”. In data set [1] (setting [10]), the decrease in hematocrit came to 12%, the decrease in hemoglobin turned out to be 12%, the decrease in platelets came out at 30% and the “decrease in total white cell counts” value is on record as 24%. Besides, the “change in mean corpuscular volume of RBCs” value in data set [1] (Study 1, HU 100 mg/kg, p < 0.001) is “increasing”. Further, the “effect on total white blood counts and platelets” value in [1] (Study 2, HU 100 mg/kg alone or with CT-101 10 mg/kg) is “decrease”. Besides, the “increase in F-cells” value in [2] worked out at 5.4 fold. Moreover, in [3], the survival stood at 83%. In addition, the “decrease in platelet counts” value in data set [4] was 50%. In data set [5] (HU 100 mg/kg, four weeks, p < 0.01), the “decrease in overall spleen size” value is 37%. In addition, the “spleen histology (hematoxylin and eosin)” value in [5] (end of four-week treatment) was “decrease in hemorrhagic infarcts and maturing extramedullary hematopoiesis”. The “increase in HbF-positive erythroid cells in spleen tissue” value in data set [6] is 1.8 fold. For the same compound, the “increased production of micronuclei” value in data set [7] was found to be 1.8 fold. For the same compound, the “change in total or acetylated histone H3 and H4 levels in spleen” value in data set [8] is on record as “not statistically significance differences”.
Turning to `O=C(CCCCCCC(=O)Nc1ccccc1)NO` [Vorinostat], the HbF expression entry in data set [9] was “did not induce HbF expression”.
